# In patent US11433069B2, “Methods of use and pharmaceutical combinations comprising histone deacetylase inhibitors and JAK1/2 inhibitors” (University of Modena and Reggio Emilia, priority 2017, dated 2022):
# Assays:
# [1] = system: 12 hematological cancer cell lines; experiment: MTT cell viability, single agents; type: cell-based; details: panel of 12 lymphoid malignant cell lines, 24-48 hours, range over cell lines
# Procedure: Momelotinib induces dose and time dependent manner growth inhibition in a panel of twelve lymphoid malignant cell lines. Multiple myeloma cells (U266, RPM18266), B-cell lymphoma cells (RL, WSU-NHL, Karpas-422), chronic lymphocytic leukemia cells (MEC-1), mantle cell lymphoma cells (Granta-519, Jeko-1), cutaneous T cell lymphoma cells (Hut-78), anaplastic large cell lymphoma cells (Karpas-299), and Hodgkin lymphoma cells (L-1236, L-540) were treated with a serial dosage of momelotinib (1-10 μM) for 24-48 hours.
# Momelotinib and Compound A alone and in combination were tested in 12 hematological cancer cell lines: B-cell lymphomas (WSU-NHL, RL, Karpas-422), mantle cell lymphoma (Granta-519, Jeko-1), cutaneous T cell lymphoma (Hut-78), anaplastic large cell lymphoma (Karpas-299), Hodgkin lymphoma (L-1236, L-540), multiple myeloma (U266, RPM18266) and chronic lymphocytic leukemia (MEC-1). With the exception of GRANTA-519, hematological cancer cell lines were cultured in RPMI-1640 supplemented with 10% fetal bovine serum (FBS), 2 mM glutamine, and 100 U/mL penicillin and streptomycin. For Granta-519 cells, DMEM was used in place of RPMI-1640.
# Cell viability was evaluated by MTT colorimetric assay following the manufacturer's instructions. […]
# [2] = system: α-tubulin; experiment: Western blot of acetylation of α-tubulin; type: cell-based; details: lymphoma cells; extent not further modified by momelotinib
# Procedure: Lymphoma cell lines treated with 1 μM of momelotinib and 4 μM of citarinostat alone and in combination. […] Whole-cell lysates were subjected to western blotting using the indicated Abs. Tubulin was used to normalize protein loading. […] Whole-cell lysates were subjected to western blotting using the indicated Abs. Tubulin was used to normalize protein loading.
# The combination treatment with momelotinib and Compound A leads JAK2/STAT3 pathway inactivation.
Compound,IC50 [1] [µM],acetylation of α-tubulin [2]
"O=C(CCCCCCNC(=O)c1cnc(N(c2ccccc2)c2ccccc2Cl)nc1)NO [Compound A, 2-((2-chlorophenyl)(phenyl)amino)-N-(7-(hydroxyamino)-7-oxoheptyl)pyrimidine-5-carboxamide]",1.51 to 60,induced the acetylation of α-tubulin
"N#CCNC(=O)c1ccc(-c2ccnc(Nc3ccc(N4CCOCC4)cc3)n2)cc1 [Momelotinib, momelotinib, reference compound]",1.8 to 9.6,–
